Laboratory results reported in paper PMC9220178, “Preclinical Characterization of Antioxidant Quinolyl Nitrone QN23 as a New Candidate for the Treatment of Ischemic Stroke” (Antioxidants, 2022).

Assays:
[1] = tested on: male Wistar rats, transient middle cerebral artery occlusion (tMCAO); assay: Infarct and edema volume (TTC staining) in transient focal cerebral ischemia (tMCAO); assay type: in vivo, rat; details: 48 h after tMCAO
Protocol: (§1) For the transient focal cerebral ischemia experimental model we used 12-week-old male Wistar rats (300–350 g, Charles River), housed under standard conditions with food and water ad libitum. The animals were anesthetized by an intraperitoneal injection of a mixture of 100 mg/kg ketamine, 5 mg/kg diazepam, and 0.3 mg/kg atropine. Anesthesia was maintained during the surgical procedure by inhalation of 1–1.5% sevoflurane in 80% medicinal air plus 20% O2. For the transient occlusion of the right middle cerebral artery (tMCAO, 60 min), we followed the intraluminal suture procedure as originally described, adapted to our experimental setup. The procedure included continuous monitoring of cortical perfusion (CP, by Laser-Doppler flowmetry), arterial blood pressure, and core temperature, and discontinuous measurement of glycemia levels during preischemia (basal), ischemia, and reperfusion stages. Buprenorphine (subcutaneous, 0.05 mg/kg) was used as an analgesic. Forty-eight hours after the ischemic insult, the animals were euthanized by intracardiac injection of potassium chloride (200 mg/kg) under deep anesthesia, and the brains were obtained.
A power analysis (see above) provided a sample size of 6 subjects per group. A total of 35 animals was used in this study. […]
Brain infarct volume was determined by the 2,3,5-triphenyltetrazolium chloride (TTC; Sigma-Aldrich, Merck KGaA, Darmstadt, Germany) vital staining method, followed by morphometric analysis by a researcher blind to the treatment allocation. […] In order to correct for the influence of edema, the infarcted area was calculated as follows: corrected infarct area = infarct area × (contralateral hemisphere area / ipsilateral hemisphere area). The corrected infarct area was measured on both the anterior and the posterior sides of each slice and averaged; the corrected infarct volume was calculated by multiplying the average corrected infarct area by the thickness of the slice (2 mm), and the total corrected infarct volume by adding up the corrected infarct volume of the seven slices. […]

[2] = tested on: experimental cerebral ischemia; set-up: method as in PMID 30715875; details: 1.5 mg/kg intraperitoneally; cited from earlier work
[3] = tested on: male Wistar rats, transient middle cerebral artery occlusion (tMCAO); assay: Neurofunctional score in transient focal cerebral ischemia (tMCAO); assay type: in vivo; details: for Neurofunctional impairment compared with vehicle: 24 h and 48 h
Protocol: as §1
A power analysis (see above) provided a sample size of 6 subjects per group. A total of 35 animals was used in this study. The animals were randomly assigned to four experimental tMCAO groups, treated with (1) vehicle; (2) QN23, 1.5 mg/kg; (3) QN23, 2.5 mg/kg; and (4) QN23, 4 mg/kg. QN23 was dissolved in vehicle and injected through the femoral vein 20 min after the end of tMCAO. Nine animals were excluded from the study, based on predefined criteria, because of death within the first 24 h after the procedure (1 vehicle, 1 QN23-treated at 2.5 mg/kg, and 4 QN23-treated at 4.0 mg/kg) or due to no infarct after the procedure (1 vehicle, 1 QN23-treated at 1.5 mg/kg, and 1 QN23-treated at 2.5 mg/kg). Experiments were conducted in compliance with the legislation on the protection of animals used for scientific purposes in Spain (RD 53/2013) and the EU (Directive 2010/63/EU). […]
Twenty-four and 48 hours after the ischemic insult, the rats’ neurofunctional status was evaluated following the procedure previously reported. The severity of functional deficits was determined with the sum of the score of four tests assessing (a) spontaneous activity (moving/exploring = 0, no moving or moving only when pushed = 1), (b) circling to the left (none = 0, circling when elevated by the tail and pushed = 1, circling without displacement, spinning = 2), (c) parachute reflex: protective abduction of forelimbs (symmetrical = 0, asymmetrical, contralateral forelimb retracted = 1), and (d) resistance to left forepaw stretching (not allowed = 0, allowed = 1). […]

[4] = tested on: carrageenan-induced rat paw edema; set-up: method as in PMID 30715875; details: cited from earlier work

Compound: COc1ccc2nc(Cl)c(/C=[N+](\[O-])C(C)(C)C)cc2c1 [QN23, (Z)-N-tert-Butyl-1-(2-chloro-6-methoxyquinolin-3-yl)methanimine Oxide]
- Brain damage (total infarct volume) compared with vehicle ([1]; 1.5 mg/kg and 2.5 mg/kg i.v.): significantly reduced brain damage
- Edema volume compared with vehicle ([1]; 1.5 mg/kg and 2.5 mg/kg i.v.): reduced
- Brain damage (total infarct volume) compared with vehicle ([1]; 4 mg/kg i.v.): not at 4 mg/kg
- Neuroprotective effect (neuronal death and neuronal apoptosis assays) [2]: significant neuroprotective effect
- Neurofunctional impairment compared with vehicle ([3]; 1.5 mg/kg and 2.5 mg/kg i.v. 20 min after end of tMCAO): significantly reduced
- Animals that died within 24 h ([3]; 2.5 mg/kg i.v., tMCAO): one
- Neurofunctional impairment compared with vehicle ([3]; 4 mg/kg i.v. 20 min after end of tMCAO): not at 4 mg/kg
- Animals that died before 24 h ([3]; 4 mg/kg i.v., tMCAO): four
- Anti-inflammatory activity [4]: showed anti-inflammatory properties
